Data reported in patent publication US20230019491A1, “PYRIMIDINE TBK/IKKe INHIBITOR COMPOUNDS AND USES THEREOF” (Merck Patent GmbH, priority 2017, published 2023).

Experiments:
TBK1 = molecular target: T1, TBK1 (Homo sapiens, UniProt Q9UHD2); test: TBK biochemical assay; settings: 10 point 1:4 dose response, 30 uM top concentration, 90 min at 25° C., LabChip EZ Reader II; read-out: TBK1_IC50
T1 sequence (Q9UHD2 1-729): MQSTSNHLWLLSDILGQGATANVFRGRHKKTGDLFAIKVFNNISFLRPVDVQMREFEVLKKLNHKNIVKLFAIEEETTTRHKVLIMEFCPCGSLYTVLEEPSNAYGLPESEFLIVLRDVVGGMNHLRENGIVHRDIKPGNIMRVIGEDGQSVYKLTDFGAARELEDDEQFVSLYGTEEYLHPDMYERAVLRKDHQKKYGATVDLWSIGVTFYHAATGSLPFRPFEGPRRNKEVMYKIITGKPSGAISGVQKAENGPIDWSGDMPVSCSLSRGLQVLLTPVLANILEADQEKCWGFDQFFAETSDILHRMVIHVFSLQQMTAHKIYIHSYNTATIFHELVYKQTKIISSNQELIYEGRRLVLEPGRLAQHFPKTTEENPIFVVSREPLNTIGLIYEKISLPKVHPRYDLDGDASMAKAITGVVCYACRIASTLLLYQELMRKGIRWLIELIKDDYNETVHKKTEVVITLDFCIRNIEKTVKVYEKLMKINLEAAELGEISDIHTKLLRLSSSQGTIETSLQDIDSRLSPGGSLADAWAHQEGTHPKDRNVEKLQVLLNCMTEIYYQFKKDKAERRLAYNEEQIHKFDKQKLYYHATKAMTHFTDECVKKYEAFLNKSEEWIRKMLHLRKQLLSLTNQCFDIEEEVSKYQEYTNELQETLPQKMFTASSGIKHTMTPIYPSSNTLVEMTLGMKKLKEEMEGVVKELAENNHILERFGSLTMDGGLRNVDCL
In short: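 Read-out was a Caliper LabChip mobility-shift assay, run after a 90-min, 25 °C reaction of TBK1 with substrate and compounds, quenched with stop buffer. Control wells received staurosporine at 10 uM final.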

IKKε = molecular target: T2, IKKε (Homo sapiens, UniProt Q14164); test: IKKε biochemical assay; settings: 10 point 1:4 dose response, 30 uM top concentration, 90 min at 25° C., LabChip EZ Reader II; read-out: IKKε_IC50
T2 sequence (Q14164 1-716): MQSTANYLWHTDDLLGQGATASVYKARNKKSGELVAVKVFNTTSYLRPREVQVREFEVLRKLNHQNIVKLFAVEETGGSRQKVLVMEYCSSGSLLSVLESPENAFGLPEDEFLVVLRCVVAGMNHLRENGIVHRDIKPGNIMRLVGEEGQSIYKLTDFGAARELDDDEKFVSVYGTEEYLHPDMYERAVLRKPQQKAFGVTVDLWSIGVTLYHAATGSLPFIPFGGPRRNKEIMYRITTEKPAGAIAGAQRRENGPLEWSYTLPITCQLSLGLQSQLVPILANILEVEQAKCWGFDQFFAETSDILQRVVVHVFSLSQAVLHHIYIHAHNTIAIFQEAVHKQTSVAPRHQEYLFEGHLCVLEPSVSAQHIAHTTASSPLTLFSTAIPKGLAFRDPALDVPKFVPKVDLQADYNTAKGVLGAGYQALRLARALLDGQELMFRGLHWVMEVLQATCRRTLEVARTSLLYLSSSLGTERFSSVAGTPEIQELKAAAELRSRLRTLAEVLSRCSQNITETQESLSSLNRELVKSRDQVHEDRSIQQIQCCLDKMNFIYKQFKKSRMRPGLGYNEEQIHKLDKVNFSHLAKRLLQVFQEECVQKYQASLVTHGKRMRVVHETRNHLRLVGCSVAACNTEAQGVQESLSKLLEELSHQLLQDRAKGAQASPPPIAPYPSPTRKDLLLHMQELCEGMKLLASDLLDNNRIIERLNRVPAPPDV
In short: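 Mobility-shift LabChip read-out followed a 90 min, 25° C. reaction of IKKε with substrate and test compound, with DMSO held at 1% final. Reactions were ended with stop buffer. Wells with 10 uM final staurosporine defined complete inhibition, and DMSO-only wells the uninhibited level.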

Row | SMILES | IC50 (TBK1) | IC50 (IKKε)
1 | COc1nc(Nc2nccc(-c3ccc(OC4CCN(C(=O)[C@H](C)O)CC4(F)F)c(C#N)n3)n2)ccc1N1CCN(C2COC2)CC1 (stereo partly drawn) [Example 304, 3-([3,3-difluoro-1-[(2S)-2-hydroxypropanoyl]piperidin-4-yl]oxy)-6-[2-([6-methoxy-5-[4-(oxetan-3-yl)piperazin-1-yl]pyridin-2-yl]amino)pyrimidin-4-yl]pyridine-2-carbonitrile] | < 0.1 µM | < 0.1 µM
2 | C[C@H](O)C(=O)N1CCC(Oc2ccc(-c3ccnc(Nc4ccc(N5CCN(C6COC6)CC5)cc4)n3)nc2C#N)C(F)(F)C1 (stereo partly drawn) [Example 306, 3-([33-difluoro-1-[(2S)-2-hydroxypropanoyl]piperidin-4-yl]oxy)-6-[2-([4-[4-(oxetan-3-yl)piperazin-1-yl]phenyl]amino)pyrimidin-4-yl]pyridine-2-carbonitrile] | < 0.1 µM | < 0.1 µM
3 | COc1nc(Nc2nccc(-c3cc(C#N)c(OC4CCN(C(=O)[C@H](C)O)CC4(F)F)cc3C)n2)ccc1N1CCN(C2COC2)CC1 (stereo partly drawn) [Example 307, 2-([3,3-difluoro-1-[(2S)-2-hydroxypropanoyl]piperidin-4-yl]oxy)-5-[2-([6-methoxy-5-[4-(oxetan-3-yl)piperazin-1-yl]pyridin-2-yl]amino)pyrimidin-4-yl]-4-methylbenzonitrile] | < 0.1 µM | < 0.1 µM
4 | COc1cc(Nc2nccc(-c3ccc(OC4CCN(C(=O)[C@H](C)O)CC4(F)F)c(C#N)c3)n2)ccc1C1CCN(C2COC2)CC1 (stereo partly drawn) [Example 311, 2-([3,3-difluoro-1-[(2S)-2-hydroxypropanoyl]piperidin-4-yl]oxy)-5-[2-([3-methoxy-4-[1-(oxetan-3-yl)piperidin-4-yl]phenyl]amino)pyrimidin-4-yl]benzonitrile] | < 0.1 µM | < 0.1 µM
5 | COc1nc(Nc2nccc(-c3ccc(N4CC5(CCNCC5)C4)c(C#N)c3)n2)ccc1N1CCN(C2COC2)CC1 [Example 312, 2-(2,7-Diaza-spiro[3.5]non-2-yl)-5-{2-[6-methoxy-5-(4-oxetan-3-yl-piperazin-1-yl)-pyridin-2-ylamino]-pyrimidin-4-yl}-benzonitrile] | 0.1 to 1 µM | 0.1 to 1 µM
6 | COc1nc(Nc2nccc(-c3ccc(N4CCC5(CC4)CNC5)c(C#N)c3)n2)ccc1N1CCN(C2COC2)CC1 [Example 313, 2-(2,7-Diaza-spiro[3.5]non-7-yl)-5-{2-[6-methoxy-5-(4-oxetan-3-yl-piperazin-1-yl)-pyridin-2-ylamino]-pyrimidin-4-yl}-benzonitrile] | < 0.1 µM | 0.1 to 1 µM
7 | COc1nc(Nc2nccc(-c3ccc(N4CC5(CCN(C(=O)[C@@H](O)CO)CC5)C4)c(C#N)c3)n2)ccc1N1CCN(C2COC2)CC1 [Example 315, 2-[7-((S)-2,3-Dihydroxy-propionyl)-2,7-diaza-spiro[3.5]non-2-yl]-5-{2-[6-methoxy-5-(4-oxetan-3-yl-piperazin-1-yl)-pyridin-2-ylamino]-pyrimidin-4-yl}-benzonitrile] | < 0.1 µM | < 0.1 µM
8 | COc1nc(Nc2nccc(-c3ccc(N4CCC5(CC4)CN(C(=O)[C@H](C)O)C5)c(C#N)c3)n2)ccc1N1CCN(C2COC2)CC1 [Example 316, 2-[2-((S)-2-Hydroxy-propionyl)-2,7-diaza-spiro[3.5]non-7-yl]-5-{2-[6-methoxy-5-(4-oxetan-3-yl-piperazin-1-yl)-pyridin-2-ylamino]-pyrimidin-4-yl}-benzonitrile] | < 0.1 µM | < 0.1 µM
9 | COc1cc(Nc2nccc(-c3ccc(OC4CCN(C(=O)[C@H](C)O)CC4)c(C#N)c3)n2)cnc1N1CCN(C2COC2)CC1 [Example 320, 2-([1-[(2S)-2-hydroxypropanoyl]piperidin-4-yl]oxy)-5-[2-([5-methoxy-6-[4-(oxetan-3-yl)piperazin-1-yl]pyridin-3-yl]amino)pyrimidin-4-yl]benzonitrile] | < 0.1 µM | < 0.1 µM

Results, then the compound that gave them:

Row | IC50 (TBK1) | IC50 (IKKε) | SMILES
10 | 0.1 to 1 µM | 1 to 5 µM | COc1nc(Nc2nccc(-c3cc(C#N)c(OC4CCN(C(=O)[C@H](C)O)CC4(F)F)cn3)n2)ccc1N1CCN(C2COC2)CC1 (stereo partly drawn) [Example 303, 5-([33-difluoro-1-[(2S)-2-hydroxypropanoyl]piperidin-4-yl]oxy)-2-[2-([6-methoxy-5-[4-(oxetan-3-yl)piperazin-1-yl]pyridin-2-yl]amino)pyrimidin-4-yl]pyridine-4-carbonitrile]
11 | < 0.1 µM | < 0.1 µM | COc1nc(Nc2nccc(-c3cnc(OC4CCN(C(=O)[C@H](C)O)CC4(F)F)c(C#N)c3)n2)ccc1N1CCN(C2COC2)CC1 (stereo partly drawn) [Example 305, 2-([3,3-difluoro-1-[(2S)-2-hydroxypropanoyl]piperidin-4-yl]oxy)-5-[2-([6-methoxy-5-[4-(oxetan-3-yl)piperazin-1-yl]pyridin-2-yl]amino)pyrimidin-4-yl]pyridine-3-carbonitrile]
12 | 0.1 to 1 µM | 0.1 to 1 µM | COc1cc(N2CCN(C3COC3)CC2)cnc1Nc1nccc(-c2ccc(OC3CCN(C(=O)[C@H](C)O)CC3(F)F)c(C#N)c2)n1 (stereo partly drawn) [Example 309, 2-([3,3-difluoro-1-[(2S)-2-hydroxypropanoyl]piperidin-4-yl]oxy)-5-[2-([3-methoxy-5-[4-(oxetan-3-yl)piperazin-1-yl]pyridin-2-yl]amino)pyrimidin-4-yl]benzonitrile]
13 | < 0.1 µM | < 0.1 µM | Cc1cc(N2CCN(C3COC3)CC2)ccc1Nc1nccc(-c2ccc(OC3CCN(C(=O)[C@H](C)O)CC3(F)F)c(C#N)c2)n1 (stereo partly drawn) [Example 310, 2-([3,3-difluoro-1-[(2S)-2-hydroxypropanoyl]piperidin-4-yl]oxy)-5-[2-([2-methyl-4-[4-(oxetan-3-yl)piperazin-1-yl]phenyl]amino)pyrimidin-4-yl]benzonitrile]
14 | < 0.1 µM | < 0.1 µM | COc1nc(Nc2nccc(-c3ccc(N4CC5(CCN(C(=O)[C@H](C)O)CC5)C4)c(C#N)c3)n2)ccc1N1CCN(C2COC2)CC1 [Example 314, 2-[7-((S)-2-Hydroxy-propionyl)-2,7-diaza-spiro[3.5]non-2-yl]-5-{2-[6-methoxy-5-(4-oxetan-3-yl-piperazin-1-yl)-pyridin-2-ylamino]-pyrimidin-4-yl}-benzonitrile]
15 | 0.1 to 1 µM | 0.1 to 1 µM | COc1cc(Nc2nccc(-c3ccc(OC4CCN(C(=O)[C@H](C)O)CC4)c(C#N)c3)n2)ncc1N1CCN(C2COC2)CC1 [Example 318, 2-([1-[(2S)-2-hydroxypropanoyl]piperidin-4-yl]oxy)-5-[2-([4-methoxy-5-[4-(oxetan-3-yl)piperazin-1-yl]pyridin-2-yl]amino)pyrimidin-4-yl]benzonitrile]
16 | 1 to 5 µM | 0.1 to 1 µM | COc1cc(Nc2nccc(-c3ccc(OC4CCN(C(=O)[C@@H](C)O)CC4)c(C#N)c3)n2)ncc1N1CCN(C2COC2)CC1 [Example 319, 2-([1-[(2R)-2-hydroxypropanoyl]piperidin-4-yl]oxy)-5-[2-([4-methoxy-5-[4-(oxetan-3-yl)piperazin-1-yl]pyridin-2-yl]amino)pyrimidin-4-yl]benzonitrile]
17 | < 0.1 µM | < 0.1 µM | COc1cc(Nc2nccc(-c3ccc(OC4CCN(C(=O)[C@@H](C)O)CC4)c(C#N)c3)n2)cnc1N1CCN(C2COC2)CC1 [Example 321, 2-([1-[(2R)-2-hydroxypropanoyl]piperidin-4-yl]oxy)-5-[2-([5-methoxy-6-[4-(oxetan-3-yl)piperazin-1-yl]pyridin-3-yl]amino)pyrimidin-4-yl]benzonitrile]
